Source: PubChem BioAssay (NCI)
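Interpolation was linear, between the two tested concentrations surrounding the appropriate level; five concentrations were tested over 48 hours in 96-well plates. The concentration for 50% growth inhibition is given as GI50. TGI: total growth inhibition.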

How the values were obtained:
Assay in all cases: NCI tumour cell line growth inhibition, 48 h
HOP-92 NSCLC = system: HOP-92 NSCLC
SR leukemia = system: SR leukemia
SW-620 colon = system: SW-620 colon
CCRF-CEM leukemia = system: CCRF-CEM leukemia
CAKI-1 renal = system: CAKI-1 renal
KM12 colon = system: KM12 colon
UACC-257 melanoma = system: UACC-257 melanoma
NCI-H522 lung = system: NCI-H522 lung
NCI-H460 lung = system: NCI-H460 lung
HOP-62 NSCLC = system: HOP-62 NSCLC
MDA-MB-435 = system: MDA-MB-435
MDA-MB-231 breast = system: MDA-MB-231 breast
A549 NSCLC = system: A549 NSCLC
T-47D breast = system: T-47D breast
K-562 leukemia = system: K-562 leukemia
TK-10 renal = system: TK-10 renal
HS 578T breast = system: HS 578T breast
HL-60(TB) leukemia = system: HL-60(TB) leukemia
MDA-MB-468 breast = system: MDA-MB-468 breast
NCI-H23 lung = system: NCI-H23 lung
OVCAR-8 ovarian = system: OVCAR-8 ovarian
SF-539 CNS = system: SF-539 CNS
IGROV1 ovarian = system: IGROV1 ovarian
U251 CNS = system: U251 CNS
HCT-15 colon = system: HCT-15 colon
NCI/ADR-RES ovarian = system: NCI/ADR-RES ovarian
NCI-H226 lung = system: NCI-H226 lung
DU-145 prostate = system: DU-145 prostate
SF-295 CNS = system: SF-295 CNS
UACC-62 melanoma = system: UACC-62 melanoma
SK-MEL-2 melanoma = system: SK-MEL-2 melanoma
OVCAR-5 ovarian = system: OVCAR-5 ovarian
BT-549 breast = system: BT-549 breast
MOLT-4 leukemia = system: MOLT-4 leukemia
SK-OV-3 ovarian = system: SK-OV-3 ovarian
M14 melanoma = system: M14 melanoma
RXF 393 renal = system: RXF 393 renal
COLO 205 colon = system: COLO 205 colon
UO-31 renal = system: UO-31 renal
MALME-3M melanoma = system: MALME-3M melanoma
SK-MEL-5 melanoma = system: SK-MEL-5 melanoma
SNB-19 CNS = system: SNB-19 CNS
MCF7 breast = system: MCF7 breast
SK-MEL-28 melanoma = system: SK-MEL-28 melanoma
HCC-2998 colon = system: HCC-2998 colon
SNB-75 CNS = system: SNB-75 CNS
SN12C renal = system: SN12C renal
HCT-116 colon = system: HCT-116 colon
SF-268 CNS = system: SF-268 CNS
OVCAR-4 ovarian = system: OVCAR-4 ovarian
EKVX NSCLC = system: EKVX NSCLC
PC-3 prostate = system: PC-3 prostate
ACHN renal = system: ACHN renal
A498 renal = system: A498 renal
786-0 renal = system: 786-0 renal
RPMI-8226 leukemia = system: RPMI-8226 leukemia
OVCAR-3 ovarian = system: OVCAR-3 ovarian

O=C1CCC(N2C(=O)c3cccc(NCCCCCC(=O)N4CCN(c5ccc6nc7c(nc6c5C(F)(F)F)C(=O)c5ncccc5C7=O)CC4)c3C2=O)C(=O)N1 (centres undefined)
GI50 (HOP-92 NSCLC): 1200 nM
TGI (HOP-92 NSCLC): 5810 nM
GI50 (SR leukemia): 227 nM
TGI (SR leukemia): > 70500 nM
GI50 (SW-620 colon): 368 nM
TGI (SW-620 colon): 1810 nM
GI50 (CCRF-CEM leukemia): 1970 nM
TGI (CCRF-CEM leukemia): > 70500 nM
GI50 (CAKI-1 renal): 889 nM
TGI (CAKI-1 renal): 2200 nM
GI50 (KM12 colon): 1430 nM
TGI (KM12 colon): 3590 nM
GI50 (UACC-257 melanoma): 1060 nM
TGI (UACC-257 melanoma): 2170 nM
GI50 (NCI-H522 lung): 1020 nM
TGI (NCI-H522 lung): 2200 nM
GI50 (NCI-H460 lung): 141 nM
TGI (NCI-H460 lung): 287 nM
GI50 (HOP-62 NSCLC): 321 nM
TGI (HOP-62 NSCLC): 1400 nM
GI50 (MDA-MB-435): 555 nM
TGI (MDA-MB-435): 1540 nM
GI50 (MDA-MB-231 breast): 23.4 nM
TGI (MDA-MB-231 breast): 2500 nM
GI50 (A549 NSCLC): 193 nM
TGI (A549 NSCLC): 712 nM
GI50 (T-47D breast): 1560 nM
TGI (T-47D breast): 5290 nM
GI50 (K-562 leukemia): 1010 nM
TGI (K-562 leukemia): > 70500 nM
GI50 (TK-10 renal): 1920 nM
TGI (TK-10 renal): 5670 nM
GI50 (HS 578T breast): 946 nM
TGI (HS 578T breast): 3920 nM
GI50 (HL-60(TB) leukemia): 919 nM
TGI (HL-60(TB) leukemia): > 18800 nM
GI50 (MDA-MB-468 breast): 1180 nM
TGI (MDA-MB-468 breast): 2680 nM
GI50 (NCI-H23 lung): 138 nM
TGI (NCI-H23 lung): 315 nM
GI50 (OVCAR-8 ovarian): 1300 nM
TGI (OVCAR-8 ovarian): 3670 nM
GI50 (SF-539 CNS): 1000 nM
TGI (SF-539 CNS): 1950 nM
GI50 (IGROV1 ovarian): 827 nM
TGI (IGROV1 ovarian): 1830 nM
GI50 (U251 CNS): 177 nM
TGI (U251 CNS): 577 nM
GI50 (HCT-15 colon): 81.9 nM
TGI (HCT-15 colon): 813 nM
GI50 (NCI/ADR-RES ovarian): 2070 nM
TGI (NCI/ADR-RES ovarian): 20800 nM
GI50 (NCI-H226 lung): 160 nM
TGI (NCI-H226 lung): 1100 nM
GI50 (DU-145 prostate): 163 nM
TGI (DU-145 prostate): 398 nM
GI50 (SF-295 CNS): 150 nM
TGI (SF-295 CNS): 384 nM
GI50 (UACC-62 melanoma): 529 nM
TGI (UACC-62 melanoma): 1540 nM
GI50 (SK-MEL-2 melanoma): 1030 nM
TGI (SK-MEL-2 melanoma): 2160 nM
GI50 (OVCAR-5 ovarian): 1010 nM
TGI (OVCAR-5 ovarian): 2170 nM
GI50 (BT-549 breast): 244 nM
TGI (BT-549 breast): 1460 nM
GI50 (MOLT-4 leukemia): 1500 nM
TGI (MOLT-4 leukemia): > 17800 nM
GI50 (SK-OV-3 ovarian): 768 nM
TGI (SK-OV-3 ovarian): 2200 nM
GI50 (M14 melanoma): 130 nM
TGI (M14 melanoma): 292 nM
GI50 (RXF 393 renal): 981 nM
TGI (RXF 393 renal): 2060 nM
GI50 (COLO 205 colon): 175 nM
TGI (COLO 205 colon): 475 nM
GI50 (UO-31 renal): 892 nM
TGI (UO-31 renal): 1810 nM
GI50 (MALME-3M melanoma): 76.2 nM
TGI (MALME-3M melanoma): 541 nM
GI50 (SK-MEL-5 melanoma): 296 nM
TGI (SK-MEL-5 melanoma): 1040 nM
GI50 (SNB-19 CNS): 149 nM
TGI (SNB-19 CNS): 393 nM
GI50 (MCF7 breast): 197 nM
TGI (MCF7 breast): 705 nM
GI50 (SK-MEL-28 melanoma): 386 nM
TGI (SK-MEL-28 melanoma): 1290 nM
GI50 (HCC-2998 colon): 275 nM
TGI (HCC-2998 colon): 1040 nM
GI50 (SNB-75 CNS): 743 nM
TGI (SNB-75 CNS): 1590 nM
GI50 (SN12C renal): 192 nM
TGI (SN12C renal): 738 nM
GI50 (HCT-116 colon): 1780 nM
TGI (HCT-116 colon): 4620 nM
GI50 (SF-268 CNS): 1360 nM
TGI (SF-268 CNS): 5050 nM
GI50 (OVCAR-4 ovarian): 1490 nM
TGI (OVCAR-4 ovarian): 4830 nM
GI50 (EKVX NSCLC): 1300 nM
TGI (EKVX NSCLC): 3920 nM
GI50 (PC-3 prostate): 376 nM
TGI (PC-3 prostate): > 19000 nM
GI50 (ACHN renal): 1090 nM
TGI (ACHN renal): 2530 nM
GI50 (A498 renal): 1200 nM
TGI (A498 renal): 2290 nM
GI50 (786-0 renal): 1590 nM
TGI (786-0 renal): 4580 nM
GI50 (RPMI-8226 leukemia): 741 nM
TGI (RPMI-8226 leukemia): 4540 nM
GI50 (OVCAR-3 ovarian): 1190 nM
TGI (OVCAR-3 ovarian): 3210 nM
